Assay results reported in patent publication US5889028A, “Colonic delivery of nicotine to treat inflammatory bowel disease” (priority 1997, dated 1999).
Entries after “also recorded” stand apart in the source; their conditions may differ.

Tests used:
[1] = systemic cotinine; cited from earlier work
[2] = Example 1: side effects (questionnaire) versus plasma nicotine concentration; assay type: in vivo, human
Method: Intraindividual side effects occurred during each study, as determined by a questionnaire filled out every 30 minutes, closely correlated with plasma nicotine concentrations. However, the threshold above which symptoms appeared varied from individual to individual with the nicotine concentration at which side effects first appeared ranging from 2.4 ng/mL to 9.9 ng/mL (although some subjects had nicotine concentrations of >11 ng/mL without symptoms).

[3] = in vivo
[4] = nicotine base; cited from earlier work
[5] = cited from earlier work
[6] = Benowitz et al., cited from earlier work
clinical = conditions: in vivo
[7] = Example 1: nicotine pharmacokinetics after IV, oral and rectal enema administration in healthy volunteers
Method: Intravenous nicotine was prepared using a nicotine base, supplied as the tartrate salt (Fisher Scientific/Eastman Kodak Company, Rochester, N.Y.). Solutions for injection were made up by combining 1.5 mg nicotine base (4.44 mg tartrate salt) in 100 ml of 0.9% sterile normal saline to form a 15 mcg/mL solution. The intravenous solution was filtered through a 0.22 micron filter into a sterile container and under sterile conditions. The solution was then cultured for organisms, assayed for endotoxin, and chemically analyzed prior to infusion to assure stable nicotine concentration. These samples were then be stored in sealed vials until the time of administration.
Thirty paid human volunteers were admitted to the pharmacokinetic study after giving informed consent to a protocol approved by the institutional review board at the Mayo Clinic, Rochester, Minn. The subjects ranged in age from 21-56 and their body weights ranged from 45 to 153 Kg. […]
Each subject underwent 2 investigations (IV and non-IV) of 8 hours duration at least 1 week apart. […] Plasma concentrations of nicotine were determined by gas chromatography/mass spectrometry as described by Baskin et al. (Clin. Chem., 31:76-80 (1991)).
For this study, the maximum plasma nicotine concentration (Cmax) and the time to reach Cmax (Tmax) were defined as the highest measured plasma concentrations and the time of the sample, respectively.

[8] = gum and patch papers; cited from earlier work

| Structure (SMILES) | activity relative to nicotine [1] | nicotine concentration without symptoms ([2]; some subjects) | side effects observed ([2]; when side effects occurred, variable frequency) | combination with 5-ASA, sulphasalazine, corticosteroids or budesonide [3] | efficacy compared with high dosage transdermal patch [3] | remission (clinical response) [3] | absorption through mucous membranes and skin [4] | effect on mucus ([5]; colonic mucus synthesis) | effect on rectal blood flow ([5]; patients with ulcerative colitis) | effect on mucosal production of eicosanoids ([5]; prostaglandin E, 6-keto-PGF1a, leukotrienes) | mucus thickness ([5]; rabbits, high doses, versus controls) | mean bioavailability for the oral dose [6] | CLb ([6]; IV, heavy smokers) | T1/2 ([6]; IV, heavy smokers) | Vdss ([6]; IV, heavy smokers) | Fa (clinical) | bioavailability / tolerability in words [7] | general side effects of nicotine administration [8] |
| --- | --- | --- | --- | --- | --- | --- | --- | --- | --- | --- | --- | --- | --- | --- | --- | --- | --- | --- |
| CN1C(=O)CC[C@H]1c1cccnc1 [cotinine] | less active metabolite than nicotine | – | – | – | – | – | – | – | – | – | – | – | – | – | – | – | – | – |
| CN1CCCC1c1cccnc1 (stereo not drawn) [nicotine] | – | > 11 ng/mL | nausea, lightheadedness, and diaphoresis | appears to show a synergistic effect | at least as efficacious as high dosage transdermal patch | up to 70% | readily absorbed through mucous membranes and intact skin | appears to increase mucus synthesis to levels observed in healthy subjects | can reduce rectal blood flow to the normal range | appears to reduce mucosal production of eicosanoids | greater mucus thickness as compared to controls | 44 (9%) | 66 (8 L/hr) | 203 (61 min.) | 3.0 (0.7 L/Kg) | ~20% | low bioavailability and was well tolerated; also recorded: low or negligible bioavailability and was well tolerated | nausea, vomiting, headaches, insomnia, somnolence, diaphoresis, pre-syncope and tremor |
